# According to patent publication US12247004B2, “2-amino-N-(amino-oxo-aryl-lambda6-sulfanylidene)acetamide compounds and their therapeutic use” (Oxford Drug Design Limited, priority 2019, dated 2025):
# Counter-ions that a name gives are not always drawn. Like-named read-outs stand apart in the source and are kept apart here.
# What was measured:
# [1] = target: Leucyl-tRNA synthetase (LeuRS) (Escherichia coli (strain K12), UniProt P07813); assay: Leucyl-tRNA synthetase enzyme inhibition (AMP-Glo; single point % inhibition at 100 μM and IC50); assay type: biochemical
# Excerpt: Study 1—Enzyme Inhibition
# The aminoacylation reaction catalyzed by aminoacyl-tRNA synthetases (aaRS) takes place in two steps. In the first step, aaRS activates its cognate amino acid with ATP; and in the second step the activated amino acid is loaded to its corresponding tRNA. This reaction can be summarized as follows: aaRS+aa+ATP=aaRS-aa-AMP+PPi aaRS-aa-AMP+tRNA=aa-tRNA+AMP+aaRS
# wherein: aaRS, aminoacyl-tRNA synthetase; aa, amino acid; aaRS-aa-AMP, enzyme-bound to aminoacyl-adenylate; AMP, adenosine monophosphate; aa-tRNA, aminoacyl-tRNA, PPi, inorganic pyrophosphate.
# a. Single Point Percentage Inhibition
# The activity of the pathogenic aaRSs was monitored by measuring AMP production using the commercial kit AMP-Glo (Promega, Madison, USA).
# Ligand stock solutions were prepared in 100% DMSO at 10 mM concentration. An assay buffer consisting of 100 mM Tris HCl pH 7.6, 40 mM MgCl, 20 mM KCl and 150 mM NaCl was prepared in dH2O.
# Using the same enzymatic assay in a 384-well plate format, ten point concentration response curves were generated for each compound using a top concentration of 10 μM. The known inhibitor LeuAMS was used as a positive control for the LeuRS assay. 100% DMSO was used as a negative control. The IC50 was calculated based on non-linear regression analysis.
# [2] = test system: bacteria (ATCC reference strains); assay: Antibacterial activity, MIC by broth micro-dilution (CLSI)
# [3] = Acinetobacter baumannii, read-out: Antibacterial Activity (MIC), E = A. baumannii B1931
# [4] = Enterobacter cloacae, read-out: Antibacterial Activity (MIC), B = Enterobacter cloacae B1966
# [5] = Escherichia coli, ATCC25922, read-out: Antibacterial Activity (MIC), A = E. coli ATCC 25922
# [6] = Escherichia coli, BAA2469, read-out: Antibacterial Activity (MIC), G = E. coli BAA-2469
# [7] = Haemophilus influenzae, ATCC49247, read-out: Antibacterial Activity (MIC), F = H. influenzae ATCC 49247
# [8] = Klebsiella pneumoniae, ATCC700603, read-out: Antibacterial Activity (MIC), C = K. pneumoniae ATCC 700603
# [9] = Pseudomonas aeruginosa, ATCC27853, read-out: Antibacterial Activity (MIC), D = P. aeruginosa ATCC 27853
# [10] = E. coli LeuRS, read-out: Enzyme Inhibition - IC50, E. coli LeuRS
# Sequence of Leucyl-tRNA synthetase (LeuRS) (P07813 whole entry, looked up): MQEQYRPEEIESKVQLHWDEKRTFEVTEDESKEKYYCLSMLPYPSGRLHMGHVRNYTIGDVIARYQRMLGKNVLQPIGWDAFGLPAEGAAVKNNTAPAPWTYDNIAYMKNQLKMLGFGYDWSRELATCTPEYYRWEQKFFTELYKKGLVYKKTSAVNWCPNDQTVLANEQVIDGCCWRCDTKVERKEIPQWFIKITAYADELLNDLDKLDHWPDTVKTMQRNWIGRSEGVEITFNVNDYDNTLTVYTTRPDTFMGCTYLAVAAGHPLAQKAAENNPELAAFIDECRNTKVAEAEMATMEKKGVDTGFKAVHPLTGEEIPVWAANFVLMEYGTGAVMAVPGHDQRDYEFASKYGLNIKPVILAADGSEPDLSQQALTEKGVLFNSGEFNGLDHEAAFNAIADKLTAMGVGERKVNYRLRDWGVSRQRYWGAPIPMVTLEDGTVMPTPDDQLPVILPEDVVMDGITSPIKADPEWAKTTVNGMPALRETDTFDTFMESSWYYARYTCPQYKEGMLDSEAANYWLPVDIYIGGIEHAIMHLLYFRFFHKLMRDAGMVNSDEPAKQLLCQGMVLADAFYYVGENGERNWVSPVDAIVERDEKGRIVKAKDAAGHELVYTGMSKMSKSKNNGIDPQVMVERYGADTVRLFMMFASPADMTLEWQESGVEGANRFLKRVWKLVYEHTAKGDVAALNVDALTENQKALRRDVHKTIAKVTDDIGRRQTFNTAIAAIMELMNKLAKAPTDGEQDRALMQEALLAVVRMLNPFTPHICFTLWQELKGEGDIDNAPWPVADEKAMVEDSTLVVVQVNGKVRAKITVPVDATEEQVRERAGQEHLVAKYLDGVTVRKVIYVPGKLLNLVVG
structure (smiles),measurement,setting,value
CC(C)C[C@H](N)C(=O)N=S(N)(=O)c1nc(Cl)cs1 (mixture of isomers) [ANASIA-045],IC50,[1],5520 nM
"CC(C)C[C@H](N)C(=O)N=[S@](N)(=O)c1cccs1.Cl (single isomer, unassigned) [ANASIA-007-1]",MIC,[2]; [3],8 µg/mL
same,MIC,[2]; [4],8 µg/mL
same,MIC,[2]; [5],1 µg/mL
same,MIC,[2]; [6],5.04 µg/mL
same,MIC,[2]; [7],2 µg/mL
same,MIC,[2]; [8],8 µg/mL
same,MIC,[2]; [9],16 µg/mL
CC(C)C[C@H](N)C(=O)N=[S@](N)(=O)c1sccc1C(C)C [ANASIA-110-1],IC50,[1],425 nM
CC(C)C[C@H](N)C(=O)N=[S@@](N)(=O)c1cc(Cl)cs1 [ANASIA-124-2],IC50,[1]; [10],4800 nM
Cc1csc([S@](N)(=O)=NC(=O)[C@@H](N)CC(C)C)c1C [ANASIA-104-2],IC50,[1]; [10],3250 nM
CC(C)C[C@H](N)C(=O)N=[S@](N)(=O)c1cccc(Oc2ccccc2)c1 [ANASIA-114-1],IC50,[1],61.8 nM
Cc1nc([S@@](N)(=O)=NC(=O)[C@@H](N)CC(C)C)sc1C [ANASIA-128-1],IC50,[1],2610 nM
COc1ccsc1[S@](N)(=O)=NC(=O)[C@@H](N)CC(C)C [ANASIA-108-2],IC50,[1]; [10],4310 nM
C[C@@H](O)[C@H]1C(=O)N2C(C(=O)O)=C(S[C@@H]3CN[C@H](C(=O)N(C)C)C3)[C@H](C)[C@H]12 [Meropenem],"Antibacterial Activity (MIC), E = A. baumannii B1931",[2],8 µg/mL
same,"Antibacterial Activity (MIC), A = E. coli ATCC 25922",[2],0.5 µg/mL
same,"Antibacterial Activity (MIC), G = E. coli BAA-2469",[2],>62.0 µg/mL
same,"Antibacterial Activity (MIC), B = Enterobacter cloacae B1966",[2],0.5 µg/mL
same,"Antibacterial Activity (MIC), F = H. influenzae ATCC 49247",[2],4 µg/mL
same,"Antibacterial Activity (MIC), C = K. pneumoniae ATCC 700603",[2],0.5 µg/mL
same,"Antibacterial Activity (MIC), D = P. aeruginosa ATCC 27853",[2],>64 µg/mL
CC(C)C[C@H](N)C(=O)N=[S@@](N)(=O)c1cccc(OC(F)F)c1 [ANASIA-088-2],IC50,[1]; [10],1560 nM
CC(C)C[C@H](N)C(=O)N=[S@@](N)(=O)c1csc2ccsc12 [ANASIA-100-2],IC50,[1]; [10],945 nM
CC(C)C[C@H](N)C(=O)N=[S@@](N)(=O)c1ccccn1 [ANASIA-075-2],IC50,[1]; [10],2540 nM
CC(C)C[C@H](N)C(=O)N=S(N)(=O)c1csc(Cl)c1 (some centres unmarked) [ANASIA-099],MIC,[2]; [3],32 µg/mL
same,MIC,[2]; [5],1 µg/mL
same,MIC,[2]; [6],2.83 µg/mL
same,MIC,[2]; [7],2 µg/mL
same,MIC,[2]; [8],16 µg/mL
same,MIC,[2]; [9],> 64 µg/mL
CC(C)C[C@H](N)C(=O)N=[S@](N)(=O)c1cscc1-c1ccccc1 [ANASIA-130-1],IC50,[1],324 nM
"CN[S@@](=O)(=NC(=O)[C@@H](N)CC(C)C)c1ccccc1 [ANASIA-010-1, (S)-2-amino-4-methyl-N—((S)-(methylamino)(oxo)(phenyl)-λ6-sulfanylidene)pentanamide]",IC50,[1],9150 nM
CC(C)C[C@H](N)C(=O)N=[S@@](N)(=O)c1sccc1C(C)C [ANASIA-110-2],IC50,[1]; [10],6240 nM
CC(C)C[C@H](N)C(=O)N=[S@](N)(=O)c1csc(C#N)c1 [ANASIA-135-1],IC50,[1],5070 nM
"C=CCc1cccc(S(N)(=O)=NC(=O)[C@@H](N)CC(C)C)c1 (stereo partly drawn) [ANASIA-085, (2S)—N-((3-allylphenyl)(amino)(oxo)-λ6-sulfanylidene)-2-amino-4-methylpentanamide hydrochloride]",IC50,[1]; [10],594 nM
CC(C)(O/N=C(\C(=O)N[C@@H]1C(=O)N2C(C(=O)[O-])=C(C[n+]3ccccc3)CS[C@H]12)c1csc(N)n1)C(=O)O [Ceftazidime],"Antibacterial Activity (MIC), E = A. baumannii B1931",[2],2 µg/mL
same,"Antibacterial Activity (MIC), A = E. coli ATCC 25922",[2],0.25 µg/mL
same,"Antibacterial Activity (MIC), G = E. coli BAA-2469",[2],>64.0 µg/mL
same,"Antibacterial Activity (MIC), B = Enterobacter cloacae B1966",[2],0.5 µg/mL
same,"Antibacterial Activity (MIC), F = H. influenzae ATCC 49247",[2],16 µg/mL
same,"Antibacterial Activity (MIC), C = K. pneumoniae ATCC 700603",[2],>64 µg/mL
same,"Antibacterial Activity (MIC), D = P. aeruginosa ATCC 27853",[2],>64 µg/mL
"CC(C)C[C@H](N)C(=O)N=S(N)(=O)c1cscc1C(N)=O (stereo partly drawn) [ANASIA-097, 4-(N′-(L-leucyl)sulfamidimidoyl)thiophene-3-carboxamide 2,2,2-trifluoroacetate]",IC50,[1]; [10],2160 nM
Cc1ncc([S@@](N)(=O)=NC(=O)[C@@H](N)CC(C)C)s1 [ANASIA-137-1],IC50,[1],2670 nM
"CC(C)C[C@H](N)C(=O)N=S(N)(=O)c1ccncc1 (stereo partly drawn) [ANASIA-059-1, (2S)-2-amino-N-(amino(oxo)(pyridin-4-yl)-λ^6-sulfanylidene)-4-methylpentanamide]",inhibition at 10 µM,"[1]; read-out: Enzyme inhibition, E. coli LeuRS, % at 10 μM",46%
CC(C)C[C@H](N)C(=O)N=S(N)(=O)c1ccc2c(c1)CCO2 (some centres unmarked) [ANASIA-048],IC50,[1]; [10],6530 nM
CC(C)C[C@H](N)C(=O)N=[S@](N)(=O)c1nc(C(F)F)cs1 [ANASIA-127-1],IC50,[1],6890 nM
CC(C)C[C@H](N)C(=O)N=[S@@](N)(=O)c1sc(Cl)cc1Cl [ANASIA-120-2],IC50,[1]; [10],7600 nM
"CCc1csc([S@](N)(=O)=NC(=O)[C@@H](N)CC(C)C)c1 [ANASIA-133-2, (S)-2-amino-N—((R)-amino(4-ethylthiophen-2-yl)(oxo)-λ6-sulfanylidene)-4-methylpentanamide]",IC50,[1],6370 nM
CC(C)C[C@H](N)C(=O)N=[S@@](N)(=O)c1cccc(Oc2ccccc2)c1 [ANASIA-114-2],IC50,[1]; [10],982 nM
CC(C)C[C@H](N)C(=O)N=[S@@](N)(=O)c1cccc(Br)c1 [ANASIA-044-2],IC50,[1]; [10],2160 nM
CC(C)C[C@H](N)C(=O)N=[S@@](N)(=O)c1cccc(C(F)(F)F)c1 [ANASIA-089-2],IC50,[1],2390 nM
CC(C)C[C@H](N)C(=O)N=S(N)(=O)c1cc(C#N)ccc1F (some centres unmarked) [ANASIA-065],IC50,[1]; [10],670 nM
"CC(C)C[C@H](N)C(=O)N=S(N)(=O)c1ccsc1C(N)=O (stereo partly drawn) [ANASIA-093, 3-(N′-(L-leucyl)sulfamidimidoyl)thiophene-2-carboxamide hydrochloride]",IC50,[1]; [10],1330 nM
Cc1sccc1[S@](N)(=O)=NC(=O)[C@@H](N)CC(C)C [ANASIA-091-2],IC50,[1]; [10],8150 nM
CC(C)C[C@H](N)C(=O)N=[S@](N)(=O)c1ccccc1F [ANASIA-087-2],IC50,[1]; [10],4920 nM
CC[C@H]1OC(=O)[C@H](C)[C@@H](O[C@H]2C[C@@](C)(OC)[C@@H](O)[C@H](C)O2)[C@H](C)[C@@H](O[C@@H]2O[C@H](C)C[C@H](N(C)C)[C@H]2O)[C@](C)(O)C[C@@H](C)CN(C)[C@H](C)[C@@H](O)[C@]1(C)O [Azithromycin],MIC,[2]; [3],16 µg/mL
same,MIC,[2]; [4],16 µg/mL
same,MIC,[2]; [5],4 µg/mL
same,MIC,[2]; [7],2 µg/mL
same,MIC,[2]; [8],32 µg/mL
same,MIC,[2]; [9],32 µg/mL
Cc1c([S@](N)(=O)=NC(=O)[C@@H](N)CC(C)C)csc1Cl [ANASIA-122-2],IC50,[1]; [10],1930 nM
CC(C)C[C@H](N)C(=O)N=[S@](N)(=O)c1nc(Cl)cs1.Cl [ANASIA-045-1],MIC,[2]; [3],64 µg/mL
same,MIC,[2]; [4],> 64 µg/mL
same,MIC,[2]; [5],4 µg/mL
same,MIC,[2]; [6],45.3 µg/mL
same,MIC,[2]; [8],> 64 µg/mL
same,MIC,[2]; [9],> 64 µg/mL
CC(C)C[C@H](N)C(=O)N=S(N)(=O)c1cc2sccc2s1 (some centres unmarked) [ANASIA-082],IC50,[1]; [10],449 nM
CC(C)C[C@H](N)C(=O)N=[S@@](N)(=O)c1cc(F)cs1 [ANASIA-062-2],IC50,[1]; [10],715 nM
CC(C)C[C@H](N)C(=O)N=[S@@](N)(=O)c1csc(Cl)c1Cl [ANASIA-125-2],IC50,[1]; [10],1930 nM
Cc1nc([S@](N)(=O)=NC(=O)[C@@H](N)CC(C)C)sc1C [ANASIA-128-2],IC50,[1]; [10],3440 nM
CC(C)C[C@H](N)C(=O)N=[S@@](N)(=O)c1csc2ccccc12 [ANASIA-083-2],IC50,[1]; [10],2300 nM
Cc1ncc([S@](N)(=O)=NC(=O)[C@@H](N)CC(C)C)s1 [ANASIA-137-2],IC50,[1]; [10],8890 nM
Cc1csc([S@@](N)(=O)=NC[C@@H](N)CC(C)C)n1 [ANASIA-004-1],MIC,[2]; [3],32 µg/mL
same,MIC,[2]; [4],> 64 µg/mL
same,MIC,[2]; [5],4 µg/mL
same,MIC,[2]; [6],64 µg/mL
same,MIC,[2]; [8],> 64 µg/mL
same,MIC,[2]; [9],64 µg/mL
Cc1ccccc1[S@@](N)(=O)=NC(=O)[C@@H](N)CC(C)C [ANASIA-086-1],IC50,[1],3330 nM
CC(C)C[C@H](N)C(=O)N=[S@@](N)(=O)c1nc(C(F)F)cs1 [ANASIA-127-2],IC50,[1],192 nM
CC(C)C[C@H](N)C(=O)N=[S@@](N)(=O)c1cscc1-c1ccccc1 [ANASIA-130-2],IC50,[1]; [10],3700 nM
CC(C)C[C@H](N)C(=O)N=S(N)(=O)c1ccn(C)n1 (some centres unmarked) [ANASIA-073],IC50,[1],238 nM
CC(C)C[C@H](N)C(=O)N=[S@](N)(=O)c1cc(Cl)sc1Cl [ANASIA-134-1],IC50,[1],5150 nM
CC(C)C[C@H](N)C(=O)N=S(N)(=O)c1cccc(OC(F)(F)F)c1 (some centres unmarked) [ANASIA-090],IC50,[1]; [10],199 nM
CC(C)C[C@H](N)C(=O)N=[S@](N)(=O)c1nsc2ccccc12 [ANASIA-132-1],IC50,[1],4140 nM
Cc1cc([S@](N)(=O)=NC(=O)[C@@H](N)CC(C)C)cs1 [ANASIA-098-2],IC50,[1]; [10],5140 nM
